Measured values reported in BindingDB's records for doi:10.1124/jpet.103.051797 (Institut De Recherches Servier, 2003).

What was measured:
[1] = target: 5-hydroxytryptamine receptor 2A (Rattus norvegicus, UniProt P14842)
[2] = target: T1, 5-hydroxytryptamine receptor 2C (Sus scrofa, UniProt K7GSR7)
T1 sequence (K7GSR7 whole entry): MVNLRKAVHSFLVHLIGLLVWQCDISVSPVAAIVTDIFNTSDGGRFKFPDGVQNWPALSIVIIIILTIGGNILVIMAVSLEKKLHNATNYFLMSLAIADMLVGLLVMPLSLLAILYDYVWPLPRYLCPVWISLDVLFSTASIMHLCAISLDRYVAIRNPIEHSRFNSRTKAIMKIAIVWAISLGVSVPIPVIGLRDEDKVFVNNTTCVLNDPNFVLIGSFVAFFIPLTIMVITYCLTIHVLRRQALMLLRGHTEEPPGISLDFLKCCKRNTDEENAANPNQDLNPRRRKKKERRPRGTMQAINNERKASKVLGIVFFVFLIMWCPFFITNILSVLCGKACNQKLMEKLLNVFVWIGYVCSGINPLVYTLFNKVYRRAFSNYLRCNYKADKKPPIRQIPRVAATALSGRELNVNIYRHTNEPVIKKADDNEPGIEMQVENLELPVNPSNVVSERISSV

[3] = target: 5-hydroxytryptamine receptor 2B (Homo sapiens, UniProt P41595)
Sequence of 5-hydroxytryptamine receptor 2B (P41595 whole entry): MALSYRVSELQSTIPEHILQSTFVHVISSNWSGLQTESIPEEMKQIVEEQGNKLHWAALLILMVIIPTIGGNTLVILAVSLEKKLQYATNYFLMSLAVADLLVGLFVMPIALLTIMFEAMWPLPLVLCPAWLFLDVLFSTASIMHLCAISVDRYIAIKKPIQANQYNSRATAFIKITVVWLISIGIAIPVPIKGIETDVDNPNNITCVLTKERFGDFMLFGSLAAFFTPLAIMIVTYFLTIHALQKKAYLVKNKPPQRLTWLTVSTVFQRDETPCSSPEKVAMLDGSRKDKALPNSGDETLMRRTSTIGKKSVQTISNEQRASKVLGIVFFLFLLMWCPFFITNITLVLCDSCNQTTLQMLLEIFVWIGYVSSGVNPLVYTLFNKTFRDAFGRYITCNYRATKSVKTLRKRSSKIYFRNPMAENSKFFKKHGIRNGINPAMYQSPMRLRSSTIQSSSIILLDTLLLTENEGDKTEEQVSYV

Sequence of 5-hydroxytryptamine receptor 2A (P14842 whole entry): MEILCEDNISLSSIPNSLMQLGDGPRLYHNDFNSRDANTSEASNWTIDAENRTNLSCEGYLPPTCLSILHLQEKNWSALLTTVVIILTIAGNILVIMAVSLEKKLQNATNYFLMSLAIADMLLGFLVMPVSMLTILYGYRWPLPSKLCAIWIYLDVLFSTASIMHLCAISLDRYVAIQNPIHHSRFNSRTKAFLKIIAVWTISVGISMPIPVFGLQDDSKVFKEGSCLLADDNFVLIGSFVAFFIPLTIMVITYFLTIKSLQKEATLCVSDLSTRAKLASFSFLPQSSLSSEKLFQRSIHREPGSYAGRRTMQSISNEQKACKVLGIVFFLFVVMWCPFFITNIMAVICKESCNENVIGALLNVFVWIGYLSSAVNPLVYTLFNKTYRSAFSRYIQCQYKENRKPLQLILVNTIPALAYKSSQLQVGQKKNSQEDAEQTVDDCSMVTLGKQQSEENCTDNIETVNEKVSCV

Row | SMILES | Ki [1] | Ki [2] | Ki [3]
1 | COc1ccc2[nH]cc(CCNC(C)=O)c2c1 | > 10 µM | > 10000 nM | –
2 | COc1ccc2cccc(CCNC(C)=O)c2c1 [S 20098] | > 10 µM | 407 nM | 257 nM
